The target in assay [1] is CDK4/Cyclin D1 (Homo sapiens (Human), UniProt P11802). Put plainly: CDK4/Cyclin D1 kinase TR-FRET inhibition assay. The format is biochemical. The following applies: 1 mM ATP, Rb (Ser780)-biotin substrate, read-out: CDK4D1 IC50. On the procedure: (§1) Compounds disclosed herein were tested for inhibition of CDK4/Cyclin D1 or CDK6/Cyclin D3 kinase in an assay based on the time-resolved fluorescence-resonance energy transfer (TR-FRET) methodology. The assay was carried out in 384-well low volume black plates in a reaction mixture containing CDK4/Cyclin D1 or CDK6/Cyclin D3, 1 mM ATP, 0.15 μM Rb (Ser780)-biotin substrate and 0-10 μM compound in buffer containing 50 mM HEPES pH7.0, 0.02% NaN3, 0.01% BSA, 0.1 mM Orthovanadate, 50 mM MgCl2, 1 mM DTT and 0.005% Tween-20. The kinase was incubated with compound for 60 minutes at room temperature and the reaction was initiated by the addition of ATP and Rb (Ser780)-biotin substrate. After reaction at room temperature for 120 minutes, an equal volume of stop/detection solution was added according to the manufacture's instruction (Cisbio Bioassays). The stop/detection solution contained Streptavidin-XL665 and Anti-pRb (Ser780) mAb-Eu Cryptate in Detection buffer (Cisbio Bioassays). Plates were incubated at room temperature for 60 minutes, and the TR-FRET signals (ex337 nm, em665 nm/620 nm) were recorded on a PHERAstar FSX plate reader (BMG Labtech). The inhibition percentage of CDK4/Cyclin D1 or CDK6/Cyclin D3 kinase activity in presence of increasing concentrations of compounds was calculated based on the ratio of fluorescence at 665 nm to that at 620 nm. The IC50 for each compound was derived from fitting the data to the four-parameter logistic equation by Dotmatics.
CDK4/Cyclin D1, sequence (P11802 whole entry): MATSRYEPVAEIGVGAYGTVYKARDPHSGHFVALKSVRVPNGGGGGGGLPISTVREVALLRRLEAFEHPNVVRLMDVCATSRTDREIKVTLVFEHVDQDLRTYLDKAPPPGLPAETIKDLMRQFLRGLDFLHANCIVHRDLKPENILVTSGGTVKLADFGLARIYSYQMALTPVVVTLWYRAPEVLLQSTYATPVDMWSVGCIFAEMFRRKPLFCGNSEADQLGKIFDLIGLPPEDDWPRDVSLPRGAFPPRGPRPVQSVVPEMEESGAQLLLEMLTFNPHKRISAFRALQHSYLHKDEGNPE
CDK4/Cyclin D1, sequence (P24385 whole entry partner): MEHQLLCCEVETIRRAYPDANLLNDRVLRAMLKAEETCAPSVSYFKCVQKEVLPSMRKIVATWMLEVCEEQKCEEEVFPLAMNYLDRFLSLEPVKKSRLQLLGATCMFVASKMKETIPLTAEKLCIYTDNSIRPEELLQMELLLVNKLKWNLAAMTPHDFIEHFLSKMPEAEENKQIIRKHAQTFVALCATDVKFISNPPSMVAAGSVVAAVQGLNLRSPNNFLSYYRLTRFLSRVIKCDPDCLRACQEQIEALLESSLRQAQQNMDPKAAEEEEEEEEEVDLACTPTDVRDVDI
On the technique in general: Time-resolved FRET reads energy transfer from a long-lived donor to a nearby acceptor.

For assay [2], the target named is CDK6/Cyclin D3 (Homo sapiens (Human), UniProt Q00534). Put plainly: CDK6/Cyclin D3 kinase TR-FRET inhibition assay. The format is biochemical. The following applies: 1 mM ATP, Rb (Ser780)-biotin substrate, read-out: CDK6D3 IC50. As for the experimental part: as §1
CDK6/Cyclin D3, sequence (Q00534 whole entry): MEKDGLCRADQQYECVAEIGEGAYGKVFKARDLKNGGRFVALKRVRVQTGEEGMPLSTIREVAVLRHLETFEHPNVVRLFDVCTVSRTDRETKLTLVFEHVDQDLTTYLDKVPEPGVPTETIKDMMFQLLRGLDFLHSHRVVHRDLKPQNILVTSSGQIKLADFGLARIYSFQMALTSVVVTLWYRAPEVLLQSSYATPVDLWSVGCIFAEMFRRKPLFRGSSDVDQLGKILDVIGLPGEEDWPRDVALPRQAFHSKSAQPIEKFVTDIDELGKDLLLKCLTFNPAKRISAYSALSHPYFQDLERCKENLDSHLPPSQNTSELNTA
CDK6/Cyclin D3, sequence (P30281 whole entry partner): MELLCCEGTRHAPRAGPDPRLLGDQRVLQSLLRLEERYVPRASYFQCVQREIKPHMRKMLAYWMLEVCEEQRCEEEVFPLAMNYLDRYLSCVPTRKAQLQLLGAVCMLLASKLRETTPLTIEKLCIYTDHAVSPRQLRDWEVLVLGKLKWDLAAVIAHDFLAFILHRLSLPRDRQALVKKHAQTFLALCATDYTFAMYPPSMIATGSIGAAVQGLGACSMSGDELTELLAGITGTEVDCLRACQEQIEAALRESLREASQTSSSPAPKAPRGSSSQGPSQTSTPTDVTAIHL

In general, IC50 refers to the concentration at which inhibition is half-maximal. As to `CC(C)c1nc(C(C)(C)O)nc2ccc(-c3nc(N[C@@H]4CCOC[C@H]4O)ncc3F)cc12` [Example 207, (3S,4R)-4-((5-fluoro-4-(2-(2-hydroxypropan-2-yl)-4-isopropylquinazolin-6-yl)pyrimidin-2-yl)amino)tetrahydro-2H-pyran-3-ol], the IC50 amounted to 536 nM in assay [1] and 3020 nM in assay [2].

With `Cc1nc2ccc(-c3nc(N[C@@H]4CCOC[C@H]4O)ncc3F)cc2c(C(C)C)c1C` [Example 7, (3S,4R)-4-((5-fluoro-4-(4-isopropyl-2,3-dimethylquinolin-6-yl)pyrimidin-2-yl)amino)tetrahydro-2H-pyran-3-ol], the IC50 was 44 nM in assay [1] and 528 nM in assay [2].

On to `CC(C)c1c(CNC[C@H]2CCCO2)cnc2ccc(-c3nc(N[C@@H]4CCOC[C@H]4O)ncc3F)cc12` [Example 24, (3S,4R)-4-((5-fluoro-4-(4-isopropyl-3-(((((R)-tetrahydrofuran-2-yl)methyl)amino)methyl)quinolin-6-yl)pyrimidin-2-yl)amino)tetrahydro-2H-pyran-3-ol], for which the IC50 stood at 20 nM in assay [1] and 620 nM in assay [2].

Take `CC(C)c1c(CNC2CC2)cnc2ccc(-c3nc(N[C@@H]4CCOC[C@H]4O)ncc3F)cc12` [Example 25, (3S,4R)-4-((4-(3-((cyclopropylamino)methyl)-4-isopropylquinolin-6-yl)-5-fluoropyrimidin-2-yl)amino)tetrahydro-2H-pyran-3-ol]: the results for the IC50 in assay [1] and in assay [2] were 8.3 nM and 224 nM, respectively.

As for `CC(C)c1c(CN2CCOCC23CC3)cnc2ccc(-c3nc(N[C@@H]4CCOC[C@H]4O)ncc3F)cc12` [Example 36, (3S,4R)-4-((4-(3-((7-oxa-4-azaspiro[2.5]octan-4-yl)methyl)-4-isopropylquinolin-6-yl)-5-fluoropyrimidin-2-yl)amino)tetrahydro-2H-pyran-3-ol], the IC50 in assay [1] was determined as 14 nM; in assay [2], 224 nM.

On to `CC(C)c1c(CN2CCOCC2)cnc2ccc(-c3nc(N[C@@H]4CCOC[C@H]4O)ncc3F)cc12` [Example 17, (3S,4R)-4-((5-fluoro-4-(4-isopropyl-3-(morpholinomethyl)quinolin-6-yl)pyrimidin-2-yl)amino)tetrahydro-2H-pyran-3-ol], for which the IC50 came out at 11 nM in assay [1] and 187 nM in assay [2].

For the compound `Cc1c(-c2nc(N[C@@H]3CCOC[C@H]3O)ncc2F)ccc2ncc(CN)c(C(C)C)c12` [Example 145, (3S,4R)-4-((4-(3-(aminomethyl)-4-isopropyl-5-methylquinolin-6-yl)-5-fluoropyrimidin-2-yl)amino)tetrahydro-2H-pyran-3-ol], the IC50 turned out to be 1.7 nM in assay [1] and 66.1 nM in assay [2].

On to `CNC(=O)c1cnc2ccc(-c3nc(N[C@@H]4CCOC[C@H]4O)ncc3F)cc2c1C(C)C` [Example 1, 6-(5-fluoro-2-(((3S,4R)-3-hydroxytetrahydro-2H-pyran-4-yl)amino)pyrimidin-4-yl)-4-isopropyl-N-methyl quinoline-3-carboxamide], for which the IC50 in assay [1] was determined as 67 nM; in assay [2], 670 nM.

Turning to `CC(C)c1c(CN2[C@H](C)COC[C@@H]2C)cnc2ccc(-c3nc(N[C@@H]4CCOC[C@H]4O)ncc3F)cc12` [Example 68], the IC50 was 8.7 nM in assay [1] and 395 nM in assay [2].

In the case of `CC(C)c1c([C@@H](C)N2CC[C@@H](F)C2)cnc2ccc(-c3nc(N[C@@H]4CCOC[C@H]4O)ncc3F)cc12` [Example 48, (3S,4R)-4-((5-fluoro-4-(3-((R)-1-((R)-3-fluoropyrrolidin-1-yl)ethyl)-4-isopropylquinolin-6-yl)pyrimidin-2-yl)amino)tetrahydro-2H-pyran-3-ol], the results for the IC50 in assay [1] and in assay [2] were 21 nM and 756 nM, respectively.

For the compound `CC(C)c1c([C@@H](C)O)cnc2ccc(-c3nc(N[C@@H]4CCOC[C@H]4O)ncc3F)cc12` [Example 42, (3S,4R)-4-((5-fluoro-4-(3-((R)-1-hydroxyethyl)-4-isopropylquinolin-6-yl)pyrimidin-2-yl)amino)tetrahydro-2H-pyran-3-ol], the IC50 in assay [1] is 32 nM; in assay [2], 480 nM.

For `CC(C)c1c(CN2CCC[C@@H](C#N)C2)cnc2ccc(-c3nc(N[C@@H]4CCOC[C@H]4O)ncc3F)cc12` [Example 62, (R)-1-((6-(5-fluoro-2-(((3S,4R)-3-hydroxytetrahydro-2H-pyran-4-yl)amino)pyrimidin-4-yl)-4-isopropylquinolin-3-yl)methyl)piperidine-3-carbonitrile], the IC50 in assay [1] came out at 11 nM; in assay [2], 572 nM.

Take `CC(C)c1c(CNc2cnn(C)c2)cnc2ccc(-c3nc(N[C@@H]4CCOC[C@H]4O)ncc3F)cc12` [Example 43, (3S,4R)-4-((5-fluoro-4-(4-isopropyl-3-(((1-methyl-1H-pyrazol-4-yl)amino)methyl)quinolin-6-yl)pyrimidin-2-yl)amino)tetrahydro-2H-pyran-3-ol]: the results for the 50% inhibitory concentration (IC50) in assay [1] and in assay [2] were 41 nM and 533 nM, respectively.

Take `CC(C)c1c(CN2CC[C@@H](F)C2)cnc2ccc(-c3nc(N[C@@H]4CCOC[C@H]4O)ncc3F)cc12` [Example 23, (3S,4R)-4-((5-fluoro-4-(3-(((R)-3-fluoropyrrolidin-1-yl)methyl)-4-isopropylquinolin-6-yl)pyrimidin-2-yl)amino)tetrahydro-2H-pyran-3-ol]: the values for the IC50 in assay [1] and in assay [2] were 19 nM and 361 nM, respectively.

With `CC(C)c1c(CN2CC3CC(C2)O3)cnc2ccc(-c3nc(N[C@@H]4CCOC[C@H]4O)ncc3F)cc12` [Example 14, (3S,4R)-4-((4-(3-((6-oxa-3-azabicyclo[3.1.1]heptan-3-yl)methyl)-4-isopropylquinolin-6-yl)-5-fluoropyrimidin-2-yl)amino)tetrahydro-2H-pyran-3-ol], the IC50 worked out at 12 nM in assay [1] and 228 nM in assay [2].

On to `CC(C)c1c(CNC2CCCC2)cnc2ccc(-c3nc(N[C@@H]4CCOC[C@H]4O)ncc3F)cc12` [Example 26, (3S,4R)-4-((4-(3-((cyclopentylamino)methyl)-4-isopropylquinolin-6-yl)-5-fluoropyrimidin-2-yl)amino)tetrahydro-2H-pyran-3-ol], for which the IC50 in assay [1] turned out to be 33 nM; in assay [2], 990 nM.

Take `CC(C)c1c(CN2C3CCCC2CC(O)C3)cnc2ccc(-c3nc(N[C@@H]4CCOC[C@H]4O)ncc3F)cc12` (stereo partly drawn) [Example 60, (1R,3R,5S)-9-((6-(5-fluoro-2-(((3S,4R)-3-hydroxytetrahydro-2H-pyran-4-yl)amino)pyrimidin-4-yl)-4-isopropylquinolin-3-yl)methyl)-9-azabicyclo[3.3.1]nonan-3-ol]: the IC50 amounted to 15 nM in assay [1] and 585 nM in assay [2].

With `CC(C)c1c(CN2CC[C@H](F)C2)cnc2ccc(-c3nc(N[C@@H]4CCOC[C@H]4O)ncc3F)cc12` [Example 18, (3S,4R)-4-((5-fluoro-4-(3-(((S)-3-fluoropyrrolidin-1-yl)methyl)-4-isopropylquinolin-6-yl)pyrimidin-2-yl)amino)tetrahydro-2H-pyran-3-ol], the IC50 in assay [1] was 26 nM; in assay [2], 598 nM.

On to `CC(C)c1c(CNC2CCC2)cnc2ccc(-c3nc(N[C@@H]4CCOC[C@H]4O)ncc3F)cc12` [Example 19, (3S,4R)-4-((4-(3-((cyclobutylamino)methyl)-4-isopropylquinolin-6-yl)-5-fluoropyrimidin-2-yl)amino)tetrahydro-2H-pyran-3-ol], for which the IC50 in assay [1] came out at 20 nM; in assay [2] it was 1220 nM.

Regarding `CC(C)c1c(CN2CCCC2=O)cnc2ccc(-c3nc(N[C@@H]4CCOC[C@H]4O)ncc3F)cc12` [Example 12, 1-((6-(5-fluoro-2-(((3S,4R)-3-hydroxytetrahydro-2H-pyran-4-yl)amino)pyrimidin-4-yl)-4-isopropylquinolin-3-yl)methyl)pyrrolidin-2-one], the IC50 in assay [1] came out at 19 nM; in assay [2], 323 nM.

`CC(C)c1c(CNc2ccccn2)cnc2ccc(-c3nc(N[C@@H]4CCOC[C@H]4O)ncc3F)cc12` [Example 59, (3S,4R)-4-((5-fluoro-4-(4-isopropyl-3-((pyridin-2-ylamino)methyl)quinolin-6-yl)pyrimidin-2-yl)amino)tetrahydro-2H-pyran-3-ol]: the IC50 in assay [1] was 46 nM; in assay [2] it was 3590 nM.

`CC(C)c1ccnc2ccc(-c3nc(N[C@@H]4CCOC[C@H]4O)ncc3F)cc12` [Example 8, (3S,4R)-4-((5-fluoro-4-(4-isopropylquinolin-6-yl)pyrimidin-2-yl)amino)tetrahydro-2H-pyran-3-ol]: the concentration for half-maximal inhibition (IC50) in assay [1] stood at 14 nM; in assay [2] it was 252 nM.

Turning to `CC(C)c1c(CN2[C@H](C)COC[C@H]2C)cnc2ccc(-c3nc(N[C@@H]4CCOC[C@H]4O)ncc3F)cc12` [Example 69, (3S,4R)-4-((4-(3-(((3R,5R)-3,5-dimethylmorpholino)methyl)-4-isopropylquinolin-6-yl)-5-fluoropyrimidin-2-yl)amino)tetrahydro-2H-pyran-3-ol], the figures for the IC50 in assay [1] and in assay [2] were 8.3 nM and 355 nM, respectively.

These data come from patent US20240300937A1, “Substituted 6-(Pyrimidin-4-yl)Quinoline Compounds as Cyclin Dependent Kinase Inhibitors” (BeiGene, Ltd., priority 2022, published 2024).
